# Active and inactive are the calls of the source. Rule as the data show it, for most assays here: actives have a measured Kd and inactives only a lower limit.
# Experiments:
# LIM domain kinase 2 = LIM domain kinase 2 (Homo sapiens, UniProt P53671)
# dCTP pyrophosphatase 1 = molecular target: T1, dCTP pyrophosphatase 1 (Homo sapiens, UniProt Q9H773)
# T1 sequence (Q9H773 whole entry): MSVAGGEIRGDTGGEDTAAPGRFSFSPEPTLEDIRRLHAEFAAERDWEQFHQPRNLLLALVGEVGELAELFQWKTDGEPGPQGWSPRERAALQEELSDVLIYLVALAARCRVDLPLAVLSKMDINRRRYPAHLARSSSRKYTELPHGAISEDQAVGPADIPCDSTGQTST
# [1] = molecular target: T2, Mitogen-activated protein kinase kinase kinase kinase 3 (Homo sapiens, UniProt Q8IVH8)
# T2 sequence (Q8IVH8 whole entry): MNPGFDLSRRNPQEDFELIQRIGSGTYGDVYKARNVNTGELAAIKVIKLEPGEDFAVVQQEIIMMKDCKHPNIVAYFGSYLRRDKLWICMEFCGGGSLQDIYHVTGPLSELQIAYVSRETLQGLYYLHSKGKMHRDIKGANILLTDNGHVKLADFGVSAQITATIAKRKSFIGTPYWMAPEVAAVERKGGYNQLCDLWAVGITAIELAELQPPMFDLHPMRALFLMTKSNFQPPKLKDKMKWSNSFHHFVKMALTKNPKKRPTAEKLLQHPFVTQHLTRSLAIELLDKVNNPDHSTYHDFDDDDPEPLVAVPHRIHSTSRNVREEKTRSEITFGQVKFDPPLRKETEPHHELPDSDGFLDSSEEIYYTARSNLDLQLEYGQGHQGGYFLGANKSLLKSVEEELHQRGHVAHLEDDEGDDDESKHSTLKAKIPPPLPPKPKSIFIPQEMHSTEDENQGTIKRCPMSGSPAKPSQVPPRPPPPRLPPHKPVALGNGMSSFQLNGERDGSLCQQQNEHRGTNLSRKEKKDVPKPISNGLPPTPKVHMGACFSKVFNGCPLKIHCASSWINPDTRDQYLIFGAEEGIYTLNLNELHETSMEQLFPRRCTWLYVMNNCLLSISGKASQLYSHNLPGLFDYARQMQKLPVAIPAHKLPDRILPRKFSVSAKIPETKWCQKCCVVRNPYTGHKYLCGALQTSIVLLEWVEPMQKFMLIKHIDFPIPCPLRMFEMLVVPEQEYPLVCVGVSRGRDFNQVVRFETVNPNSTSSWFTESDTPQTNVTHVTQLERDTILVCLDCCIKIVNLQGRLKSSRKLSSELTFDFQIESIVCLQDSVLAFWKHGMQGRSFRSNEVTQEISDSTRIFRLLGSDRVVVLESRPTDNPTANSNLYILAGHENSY
# [2] = molecular target: Calcium/calmodulin-dependent protein kinase type II subunit delta (Homo sapiens, UniProt Q13557)
# Sequence of Calcium/calmodulin-dependent protein kinase type II subunit delta (Q13557 whole entry): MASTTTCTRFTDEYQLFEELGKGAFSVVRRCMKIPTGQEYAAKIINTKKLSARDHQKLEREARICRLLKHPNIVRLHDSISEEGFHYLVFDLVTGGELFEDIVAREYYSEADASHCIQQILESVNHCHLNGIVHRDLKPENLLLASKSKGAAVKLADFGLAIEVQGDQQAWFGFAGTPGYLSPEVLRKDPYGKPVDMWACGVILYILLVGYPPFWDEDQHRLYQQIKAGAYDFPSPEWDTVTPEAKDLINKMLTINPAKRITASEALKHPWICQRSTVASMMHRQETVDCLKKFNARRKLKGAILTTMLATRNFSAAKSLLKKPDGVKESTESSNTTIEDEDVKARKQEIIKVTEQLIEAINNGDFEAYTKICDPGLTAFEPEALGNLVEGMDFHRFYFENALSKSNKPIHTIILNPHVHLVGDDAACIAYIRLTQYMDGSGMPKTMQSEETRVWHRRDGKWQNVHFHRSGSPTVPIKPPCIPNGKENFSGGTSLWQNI
# Activin receptor type-1 = molecular target: T3, Activin receptor type-1 (Homo sapiens, UniProt Q04771)
# T3 sequence (Q04771 whole entry): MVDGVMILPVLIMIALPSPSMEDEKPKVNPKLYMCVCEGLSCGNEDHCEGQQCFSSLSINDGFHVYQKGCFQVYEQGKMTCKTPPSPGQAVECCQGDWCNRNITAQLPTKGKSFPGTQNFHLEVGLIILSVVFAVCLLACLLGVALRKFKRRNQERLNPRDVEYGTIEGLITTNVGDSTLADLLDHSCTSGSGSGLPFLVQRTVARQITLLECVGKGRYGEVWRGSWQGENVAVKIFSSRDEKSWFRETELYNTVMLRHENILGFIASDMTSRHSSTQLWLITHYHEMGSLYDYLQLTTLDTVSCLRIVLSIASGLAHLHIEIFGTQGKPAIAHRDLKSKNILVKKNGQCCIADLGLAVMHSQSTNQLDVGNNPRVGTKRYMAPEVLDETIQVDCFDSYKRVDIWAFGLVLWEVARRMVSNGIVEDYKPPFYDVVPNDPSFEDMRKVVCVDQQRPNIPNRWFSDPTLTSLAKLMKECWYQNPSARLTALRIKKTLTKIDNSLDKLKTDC
# [3] = molecular target: T4, General transcription and DNA repair factor IIH helicase subunit XPD (Homo sapiens, UniProt P18074); conditions: read-out: Kd apparent; k-562, colo 205, sk-n-be(2) and mv-4-11
# T4 sequence (P18074 whole entry): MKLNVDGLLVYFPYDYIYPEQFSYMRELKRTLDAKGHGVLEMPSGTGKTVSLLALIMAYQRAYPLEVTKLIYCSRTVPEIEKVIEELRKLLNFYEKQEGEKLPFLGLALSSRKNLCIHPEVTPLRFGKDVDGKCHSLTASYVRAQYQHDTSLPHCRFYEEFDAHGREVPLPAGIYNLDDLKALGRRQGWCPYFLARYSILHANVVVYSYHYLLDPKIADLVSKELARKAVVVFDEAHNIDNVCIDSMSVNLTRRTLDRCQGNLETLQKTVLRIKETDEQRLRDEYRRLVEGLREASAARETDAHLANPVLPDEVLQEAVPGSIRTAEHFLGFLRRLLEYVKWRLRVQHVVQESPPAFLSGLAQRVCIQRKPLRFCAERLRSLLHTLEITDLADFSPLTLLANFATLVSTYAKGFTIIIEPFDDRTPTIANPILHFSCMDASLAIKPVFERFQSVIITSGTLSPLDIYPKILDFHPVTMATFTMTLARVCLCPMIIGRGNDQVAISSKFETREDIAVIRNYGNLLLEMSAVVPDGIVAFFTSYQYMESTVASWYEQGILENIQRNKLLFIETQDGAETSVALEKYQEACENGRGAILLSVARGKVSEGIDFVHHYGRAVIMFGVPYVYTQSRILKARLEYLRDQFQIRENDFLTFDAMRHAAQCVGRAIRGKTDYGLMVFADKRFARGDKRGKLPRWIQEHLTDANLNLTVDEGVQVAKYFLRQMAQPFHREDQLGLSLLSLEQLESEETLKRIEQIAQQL
# Aurora kinase A = molecular target: T5, Aurora kinase A (Homo sapiens, UniProt O14965)
# T5 sequence (O14965 whole entry): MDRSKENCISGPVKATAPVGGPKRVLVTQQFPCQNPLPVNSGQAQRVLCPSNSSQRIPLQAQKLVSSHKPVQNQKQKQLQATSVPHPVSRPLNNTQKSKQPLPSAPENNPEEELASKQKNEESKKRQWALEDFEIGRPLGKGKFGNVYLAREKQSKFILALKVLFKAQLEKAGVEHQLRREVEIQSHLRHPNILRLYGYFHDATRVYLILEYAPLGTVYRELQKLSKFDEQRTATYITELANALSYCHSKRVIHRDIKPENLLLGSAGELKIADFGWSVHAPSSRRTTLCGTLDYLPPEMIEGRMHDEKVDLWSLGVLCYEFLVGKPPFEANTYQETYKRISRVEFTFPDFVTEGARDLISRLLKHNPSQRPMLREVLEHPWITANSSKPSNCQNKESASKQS
# Also: in the data inactive means no Kd found up to 30 µM.
# Sequence of LIM domain kinase 2 (P53671 whole entry, the tested form may be a part): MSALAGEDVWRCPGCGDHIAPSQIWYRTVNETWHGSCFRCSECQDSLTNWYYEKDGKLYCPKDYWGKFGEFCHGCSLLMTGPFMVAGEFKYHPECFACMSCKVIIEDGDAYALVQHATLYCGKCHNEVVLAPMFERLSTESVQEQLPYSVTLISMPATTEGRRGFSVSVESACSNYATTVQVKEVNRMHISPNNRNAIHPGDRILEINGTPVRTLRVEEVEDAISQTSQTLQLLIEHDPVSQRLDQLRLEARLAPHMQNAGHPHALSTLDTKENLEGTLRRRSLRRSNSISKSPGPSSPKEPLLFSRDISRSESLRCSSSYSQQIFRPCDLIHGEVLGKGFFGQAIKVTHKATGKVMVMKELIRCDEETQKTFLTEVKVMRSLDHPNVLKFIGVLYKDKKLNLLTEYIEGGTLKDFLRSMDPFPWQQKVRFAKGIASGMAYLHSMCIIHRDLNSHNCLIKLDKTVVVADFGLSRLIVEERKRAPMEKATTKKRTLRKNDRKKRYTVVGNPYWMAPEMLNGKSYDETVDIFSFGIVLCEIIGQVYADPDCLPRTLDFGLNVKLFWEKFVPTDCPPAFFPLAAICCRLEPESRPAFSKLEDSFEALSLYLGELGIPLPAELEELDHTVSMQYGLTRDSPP
Structure (SMILES),Kd (LIM domain kinase 2),Kd (dCTP pyrophosphatase 1),Kd [1],Kd [2],Kd (Activin receptor type-1),Kd [3],Kd (Aurora kinase A)
CCc1cnn2c(NCc3ccc[n+]([O-])c3)cc(N3CCCC[C@H]3CCO)nc12 [DINACICLIB],> 30 µM (inactive),> 30 µM (inactive),> 30 µM (inactive),> 30 µM (inactive),> 30 µM (inactive),,
Cn1ncc(Cl)c1-c1cc(C(=O)N[C@H](CN)Cc2cccc(F)c2)sc1Cl [AFURESERTIB],> 30 µM (inactive),> 30 µM (inactive),> 30 µM (inactive),> 30 µM (inactive),> 30 µM (inactive),> 30 µM (inactive),> 30 µM (inactive)
CC[C@H](Nc1ncnc2[nH]cnc12)c1nc2cccc(F)c2c(=O)n1-c1ccccc1 [IDELALISIB],> 30 µM (inactive),> 30 µM (inactive),> 30 µM (inactive),> 30 µM (inactive),> 30 µM (inactive),,> 30 µM (inactive)
O=C(O)[C@]1(Cc2cccc(Nc3nccs3)n2)CC[C@@H](Oc2cccc(Cl)c2F)CC1 [MK-5108],> 30 µM (inactive),> 30 µM (inactive),> 30 µM (inactive),> 30 µM (inactive),0.121 µM (active),> 30 µM (inactive),
CN(C)C(=O)c1cc2cnc(Nc3ccc(N4CCNCC4)cn3)nc2n1C1CCCC1 [RIBOCICLIB],> 30 µM (inactive),> 30 µM (inactive),> 30 µM (inactive),0.293 µM (active),> 30 µM (inactive),> 30 µM (inactive),> 30 µM (inactive)
C[C@@H]1CN(Cc2ccc(F)cc2)[C@@H](C)CN1C(=O)c1cc2c(C(=O)C(=O)N(C)C)cn(C)c2cc1Cl [TALMAPIMOD],> 30 µM (inactive),> 30 µM (inactive),> 30 µM (inactive),> 30 µM (inactive),> 30 µM (inactive),> 30 µM (inactive),> 30 µM (inactive)
O=C1NC(=O)/C(=C/c2ccc3nccc(-c4ccncc4)c3c2)S1 [GSK-1059615],> 30 µM (inactive),> 30 µM (inactive),> 30 µM (inactive),> 30 µM (inactive),> 30 µM (inactive),> 30 µM (inactive),> 30 µM (inactive)
Cn1cc(-c2ccc3nnc(C(F)(F)c4ccc5ncccc5c4)n3n2)cn1 [JNJ-38877605],> 30 µM (inactive),> 30 µM (inactive),> 30 µM (inactive),> 30 µM (inactive),> 30 µM (inactive),> 30 µM (inactive),> 30 µM (inactive)
CO[C@H]1C[C@@H]2CC[C@@H](C)[C@@](O)(O2)C(=O)C(=O)N2CCCC[C@H]2C(=O)O[C@H]([C@H](C)C[C@@H]2CC[C@@H](OCCO)[C@H](OC)C2)CC(=O)[C@H](C)/C=C(\C)[C@@H](O)[C@@H](OC)C(=O)[C@H](C)C[C@H](C)/C=C/C=C/C=C/1C [EVEROLIMUS],> 30 µM (inactive),> 30 µM (inactive),> 30 µM (inactive),> 30 µM (inactive),> 30 µM (inactive),> 30 µM (inactive),> 30 µM (inactive)
COc1cc2nccc(Oc3ccc(NC(=O)NC4CC4)c(Cl)c3)c2cc1C(N)=O [LENVATINIB],> 30 µM (inactive),> 30 µM (inactive),,> 30 µM (inactive),> 30 µM (inactive),> 30 µM (inactive),
OCCn1cc(-c2cnc3nnn(Cc4ccc5ncccc5c4)c3n2)cn1 [PF-04217903],> 30 µM (inactive),> 30 µM (inactive),> 30 µM (inactive),> 30 µM (inactive),,> 30 µM (inactive),
CN1CCN(c2ccc3nc(-c4c(N)c5c(F)cccc5[nH]c4=O)[nH]c3c2)CC1 [DOVITINIB],,> 30 µM (inactive),,,,> 30 µM (inactive),
Cc1cc(Nc2cc(N3CCN(C)CC3)nc(/C=C/c3ccccc3)n2)n[nH]1 [ENMD-2076],,> 30 µM (inactive),> 30 µM (inactive),,,> 30 µM (inactive),
COc1cc(CCc2cc(NC(=O)c3ccc(N4C[C@@H](C)N[C@@H](C)C4)cc3)n[nH]2)cc(OC)c1 [AZD-4547],> 30 µM (inactive),> 30 µM (inactive),0.049 µM (active),> 30 µM (inactive),> 30 µM (inactive),> 30 µM (inactive),
CNC(=O)c1cc(Oc2ccc(NC(=O)Nc3ccc(Cl)c(C(F)(F)F)c3)c(F)c2)ccn1 [REGORAFENIB],> 30 µM (inactive),> 30 µM (inactive),> 30 µM (inactive),> 30 µM (inactive),> 30 µM (inactive),,> 30 µM (inactive)
CCn1c(-c2nonc2N)nc2c(C#CC(C)(C)O)ncc(OC[C@H]3CCCNC3)c21 [GSK-690693],,0.573 µM (active),,,,> 30 µM (inactive),
O=C(Nc1cccc(Cl)c1)Nc1ncc(CCNc2ncnc3ccsc23)s1 [SNS-314],> 30 µM (inactive),> 30 µM (inactive),> 30 µM (inactive),,> 30 µM (inactive),> 30 µM (inactive),
Cc1cn(-c2cc(NC(=O)c3ccc(C)c(Nc4nccc(-c5cccnc5)n4)c3)cc(C(F)(F)F)c2)cn1 [NILOTINIB],,> 30 µM (inactive),,,,> 30 µM (inactive),
CC[C@@H]1C(=O)N(C)c2cnc(Nc3ccc(C(=O)N[C@H]4CC[C@H](N5CCN(CC6CC6)CC5)CC4)cc3OC)nc2N1C(C)C [VOLASERTIB],> 30 µM (inactive),> 30 µM (inactive),> 30 µM (inactive),> 30 µM (inactive),> 30 µM (inactive),,> 30 µM (inactive)
Nc1nc(N)c2nc(-c3cccc(O)c3)c(-c3cccc(O)c3)nc2n1 [TG100-115],,> 30 µM (inactive),,,,> 30 µM (inactive),
Cc1nc(N)sc1-c1ccnc(Nc2ccc(N3CCOCC3)cc2)n1 [CYC-116],2.55 µM (active),> 30 µM (inactive),,,0.396 µM (active),> 30 µM (inactive),
